{"source": "patent US12202801B1", "about": "(priority 2023, dated 2025)", "tested_on": "Mycobacterium tuberculosis H37Rv", "experiment": "Resazurin Microplate Assay (REMA), anti-tubercular activity, H37Rv strain", "assay_type": "cell-based", "conditions": "192 h, read-out: Anti-tubercular activity against Mycobacterium tuberculosis (MIC), H37Rv", "data": [{"compound": "N#Cc1ccc(C(=O)C[n+]2ccc(C#N)cc2)cc1.[Br-]", "note": "[Compound 3f, 4-Cyano-1-(2-(4-cyanophenyl)-2-oxoethyl)pyridin-1-ium bromide]", "values": [{"measurement": "MIC", "result": 1, "unit": "µg/mL"}]}]}
